Marks after values point to notes of the source that are not given here.
Key:
[1] = Body weight and food intake of OLETF rats; format: in vivo, rat; conditions: M±SE
Text: The rats that were the subjects of the experiment were divided into three groups: a Control group to be fed a control diet, a Hercampuri group to be fed a Hercampuri-enriched diet, and an Acarbose group to be fed an Acarbose-enriched diet. […] This control diet was purified animal feed containing casein as the source of protein. The Hercampuri-enriched diet fed to the rats in the Hercampuri group was produced by adding Hercampuri extract powder at a mixing ratio of 2% to the control diet. The Acarbose-enriched diet fed to the rats in the Acarbose group was produced by adding Acarbose (product of Bayer AG) at a mixing ratio of 0.2% to the control diet. For each experimental diet, the amount of the added subject ingredient was compensated for by adjusting the amount of corn starch. Male OLETF rats and LETO rats delivered from Tokushima Research Institute of Otsuka Pharmaceutical Co., Ltd. were used as the subject animals. Each one of these OLETF rats and LETO rats was born during the period of June 10th to June 13th in 2002. […] The rats had free access to feed (CE-2: product of Clea Japan, Inc.) and drinking water (tap water). […] During the experiment, the body weights and the amounts of food intake were measured every other day. […]

[2] = system: Otsuka Long-Evans Tokushima Fatty (OLETF) rats; test: Serum and lipoprotein fraction cholesterol, phospholipid, triglyceride in OLETF rats; format: in vivo, rat; conditions: end of six-week experiment, M±SE
Protocol: Six week after the initiation of the experiment, without prior abstinence from feed, each rat was anesthetized by administering approximately 50 mg/kg of pentobarbital sodium (product of Dainippon Pharmaceutical Co., Ltd.) into the abdominal cavity to remove all of its blood via the abdominal aorta with an injection syringe. This operation was performed during the period from 10:00 am to 12:00 am. The blood obtained by the operation was set aside for 1 hour at room temperature and subsequently at 4° C. for a period in the range of 1 to 2 hours. Thereafter, blood serum was separated by means of centrifugation at 2500 rpm at 4° C. for 10 minutes. Fractions of various lipoproteins were separated from the blood serum obtained at the time of whole blood extraction. […] Therefore, it is not possible with step-wise density gradient ultracentrifugation employed for this experiment to exclusively separate native LDL, and the LDL fraction separated in this stage contains HDL1 that existed together with LDL. The cholesterol, phospholipid, and triglyceride contents in the serum and each lipoprotein fraction were enzymatically measured with commercial kits (Cholesterol E-Test Wako, Phospholipid C-Test Wako, and Triglyceride E-Test Wako; products of Wako Pure Chemical Industries, Ltd.), respectively.

[3] = system: Otsuka Long-Evans Tokushima Fatty (OLETF) rats; test: Serum glucose, free fatty acids and insulin in OLETF rats; format: in vivo, rat; conditions: end of six-week experiment, M±SE
Protocol: Six week after the initiation of the experiment, without prior abstinence from feed, each rat was anesthetized by administering approximately 50 mg/kg of pentobarbital sodium (product of Dainippon Pharmaceutical Co., Ltd.) into the abdominal cavity to remove all of its blood via the abdominal aorta with an injection syringe. This operation was performed during the period from 10:00 am to 12:00 am. The blood obtained by the operation was set aside for 1 hour at room temperature and subsequently at 4° C. for a period in the range of 1 to 2 hours. Thereafter, blood serum was separated by means of centrifugation at 2500 rpm at 4° C. for 10 minutes. Furthermore, the glucose and free fatty acid content in he serum were enzymatically measured with commercial kits (Glucose CII-Test Wako and NEFA C-Test Wako; products of Wako Pure Chemical Industries, Ltd.), respectively. The serum insulin content was determined in accordance with the Sandwich ELISA (enzyme-linked immunosorbent assay) method using a Rat insulin ELISA kit (product of Shibayagi Co., Ltd.). Therefore, the insulin content is shown in terms of Immuno-reactive insulin (IRI; pg/ml).

[4] = system: Otsuka Long-Evans Tokushima Fatty (OLETF) rats; test: Serum apolipoprotein contents in OLETF rats; format: in vivo, rat; conditions: M±SE
Protocol: The respective contents of various apolipoproteins, i.e. apoA-I, apoB, and apoE, as well as the respective apoE contents in the LDL and HDL fractions, were determined by the rocket immunoelectrophoresis method described in “Age-related changes in serum concentrations of apolipoprotein A-I, E, and A-IV in SHRSP” by Hiroshi Ogawa and 4 other members (G.B., Journal of Hypertension, vol. 4, p 429-453, 1986). The aforementioned immunoelectrophoresis method is in accordance with the Laurell method and adjustment of a part of the method presented by C. B. Laurell in “Quantitative estimation of proteins by electrophoresis in agarose-gel containing antibodies” (USA, Analytical Biochemistry, vol. 15, p 42-52, 1966). The antibodies used for this measurement were specific antibodies obtained from rabbits by using antigens that were various apolipoproteins separated and refined from rat serum. Furthermore, apoB/apoA-I was calculated from the results of measurement of apoA-I and apoB.

[5] = system: Otsuka Long-Evans Tokushima Fatty (OLETF) rats; test: Liver weight ratio and liver lipid contents in OLETF rats; format: in vivo, rat; conditions: end of six-week experiment, M±SE
Protocol: Immediately after the extraction of all the blood, the liver was quickly removed from all the rats in each group, and the wet weight of each liver was measured. The liver weight ratio of each rat is shown in terms of the liver weight per unit of body weight (100 g) at the time of removal. Extraction of lipid from each liver was performed in accordance with the method described in “A simple method for the isolation and purification of total lipids from animal tissues” (Folch and two other members, Journal of Biological Chemistry, vol. 226, p 497-509, 1957). A part of the lower layer of the liquid liver extract (the chloroform-containing layer) was separated, and the chloroform contained therein was evaporated under nitrogen gas current. The liquid with the chloroform removed was used as a sample for measuring liver lipid contents. The cholesterol, phospholipid, and triglyceride contents in the liver were enzymatically measured with commercial kits (Cholesterol E-Test Wako, Phospholipid C-Test Wako, and Triglyceride E-Test Wako; products of Wako Pure Chemical Industries, Ltd.), respectively.

[6] = system: cholesterol 7α-hydroxylase; test: 7α-hydroxylase activity in liver microsome fraction of OLETF rats; format: in vivo, rat; conditions: M±SE
Protocol: Purified liver microsome fraction was produced according to a normal method, and the cholesterol in the liver microsome fraction was used as the substrate. The activity of cholesterol 7α-hydroxylase was determined by HPLC in accordance with the method described in “An improved method for assay of cholesterol 7α-hydroxylase activity” by Tadashi Ogishima and one other member (USA, Analytical Biochemistry, vol. 158, p 228-232, 1986). The results of measurement of 7α-hydroxylase activity are shown in terms of the amount of HCO (7α-hydroxy-4-cholesten-3-on) generated per 1 mg of protein content in one minute in the microsome fraction (pmol/min/mg of microsome protein).

[7] = system: streptozotocin (STZ)-induced diabetic rats; conditions: Planta Medica 1994, 1995; cited from earlier work

| Structure (SMILES) | Food intake ([1]; average over six weeks) | Body weight ([1]; end of six-week experiment) | Serum Cholesterol [2] | Serum Phospholipid [2] | Serum Triglyceride [2] | Serum FFA [3] | Serum Glucose [3] | Serum IRI (immuno-reactive insulin) [3] | ApoB/apoA-I (×100) ([4]; calculated from apoA-I and apoB) | Serum apoA-I ([4]; end of six-week experiment) | Serum apoB ([4]; end of six-week experiment) | Serum apoE ([4]; end of six-week experiment) | Liver Cholesterol [5] | Liver Phospholipid [5] | Liver Triglyceride [5] | Liver weight [5] | 7α-hydroxylase [6] | Blood sugar levels [7] |
| --- | --- | --- | --- | --- | --- | --- | --- | --- | --- | --- | --- | --- | --- | --- | --- | --- | --- | --- |
| C[C@H]1O[C@H](O[C@H]2[C@H](O)[C@@H](O)[C@@H](O[C@H]3[C@H](O)[C@@H](O)C(O)O[C@@H]3CO)O[C@@H]2CO)[C@H](O)[C@@H](O)[C@@H]1N[C@H]1C=C(CO)[C@@H](O)[C@H](O)[C@H]1O (stereo partly drawn) [Acarbose] | 12.9 ± 0.9^a g/rat/day | 639 ± 14^b g | 150 ± 11^b mg/dL | 178 ± 10^b mg/dL | 55.6 ± 1.7^c mg/dL | 751 ± 38^c μEq/L | 193 ± 12^c mg/dL | 665 ± 231^b pg/mL | 3.15 ± 0.06^c | 126 ± 4^a mg/dL | 3.95 ± 0.14^b mg/dL | 55.5 ± 2.7^b mg/dL | 5.39 mg/wet g | 32.9 mg/wet g | 75.4 mg/wet g | 3.40 g/100 g B.W. | 34.5 nmol/min/mg protein |  |
| COc1cc(O)c2c(=O)c3c(O)ccc(O)c3oc2c1 [Bellidifolin] |  |  |  |  |  |  |  |  |  |  |  |  |  |  |  |  |  | has a function of reducing blood sugar levels |
